# Measured values taken from article PMC10590756, “Glutarate regulates T cell metabolism and anti-tumour immunity” (Nature Metabolism, 2023).
# Tests used:
# [1] = test system: H3 lysine methylation in human CD8^+ T cells; test: Histone 3 methylation western blot; format: cell-based; settings: DEG 500 µM, 7 days
# Method: Histones were extracted with the Histone Extraction Kit (catalogue no. ab113476, Abcam). Proteins were separated by SDS–PAGE and transferred to polyvinylidene fluoride (PVDF) membranes. Total protein stain was obtained using non-stain protein labelling reagent (catalogue no. A44448, Thermo Fisher Scientific). Membranes were then blocked in 5% milk prepared in PBS plus 0.05% Tween-20, incubated with primary antibodies overnight at 4 °C and horseradish peroxidase (HRP)-conjugated secondary antibodies (catalogue nos. HAF008 and HAF007, R&D Systems) for 1 h the next day. After enhanced chemiluminescence (ECL) exposure (catalogue no. GERPN2106, Sigma-Aldrich), membranes were imaged using an iBrightCL1000 (Thermo Fisher Scientific). […] 13998); and anti-H3k27ac (catalogue no.
# human CD8^+ T cells = test: Isotope tracing of ^13C5-labelled DEG and intracellular glutarate by LC-tandem MS; format: in vitro ADME
# Method: To affirm that exogenous administration of DEG leads to increased intracellular glutarate levels, we performed isotope tracing of human CD8^+ T cells treated with ^13C5-labelled DEG.
# Cells were counted to determine viable cell numbers (Fig. 1f,h,i and Extended Data Fig. g,h,k). A total of 0.5–2 × 10^6 viable cells were collected, washed with cold PBS and metabolic activity was quenched by freezing samples in dry ice and ethanol, and stored at −80 °C. Metabolites were extracted by adding 150 μl ice-cold 1:1 (vol/vol) methanol/water (containing 1 mM N-cyclohexyl-2-aminoethanesulfonic acid (CHES) as an internal standard) to the cell pellets; samples were transferred to a chilled microcentrifuge tube containing 150 μl chloroform and […] (750 μl total in 3:1:1 vol/vol methanol/water/chloroform). Samples were sonicated in a water bath for 8 min at 4 °C, and centrifuged (13,000g) for 10 min at 4 °C. The supernatant containing the extract was transferred to a new tube for evaporation using TurboVap LV (Biotage), resuspended in 3:3:1 (vol/vol/vol) methanol/water/chloroform (350 μl total) to phase-separate polar metabolites from apolar metabolites and centrifuged. The aqueous phase was transferred to a new tube for evaporation using TurboVap LV, washed with 60 μl methanol and dried again. Evaporated extracts were dissolved in 100 µl MeOH–50% water, before injection on the machine. Isotopically labelled glutarates were determined by liquid chromatography (LC)–tandem mass spectrometry (tandem MS) on a Waters ACQUITY UPLC system coupled to a Xevo-TQ-XS mass spectrometer. […] The column was subsequently washed in 75% A for 2.5 min and re-equilibrated at initial conditions for 3 min. MS analyses were performed in multiple reaction monitoring (MRM) mode, with positive electrospray ionization (ESI) from minute 0 – 1.4 and negative electrospray ionization (ESI) from minute 1.4 to minute 4.7. Positive ESI was conducted according to the following parameters: capillary potential 3 kV, source offset 30 V, cone voltage 15 V, source temperature 150 °C, desolvation temperature 600 °C, cone gas flow 150 l h^−1, desolvation gas flow, 1,000 l h^−1, nebulizer 7 bar and collision gas flow 0.17 ml min^−1. Negative ESI was operated under the same conditions but with a capillary potential set to 2 kV and a cone voltage set to 20 V. Acquisition was performed using MRM with the mass transitions and parameters illustrated in Supplementary Table 4. […]
# Cells were counted to determine the viable cell numbers (Extended Data Fig. 1i,n). […]
# Glutarate was determined by LC–tandem MS on a Waters ACQUITY UPLC system coupled to a Xevo-TQ-S mass spectrometer (Waters). […]
compound,measurement,setting,value
"CCOC(=O)CCCC(=O)OCC [DEG, Diethyl glutarate]",dimethylation of H3K9,[1],increased
same,trimethylation of H3K9,[1],increased
same,trimethylation of H3K27,[1],increased
same,time of conversion of DEG to glutarate intracellularly,human CD8^+ T cells,≤ 15 min
same,increase of measured intracellular glutarate concentrations,"human CD8^+ T cells; 500 µM DEG, 7 days",approximately twofold
same,intracellular DEG,human CD8^+ T cells; 15 min after administration of the labelled compound,could not be detected
same,conversion of DEG into intracellular glutarate after uptake,human CD8^+ T cells; ^13C5-labelled DEG,very rapidly converted into intracellular glutarate
